The subject of data set [1] is A/California/2935/03 (H1N1). The format is cell-based, human influenza A virus.
Data set [2] deals with A/NorthDakota/2463/03 (H3N2). The format is cell-based, human influenza A virus.
Data set [3] concerns A/Equine1/Prague/1/56 (H3N8). The class given is cell-based, equine influenza A virus.
The subject of data set [4] is A/Duck/Penn/10218/84 (H5N2). The class given is cell-based, avian influenza A virus.
In data set [5] the test system is Human Immunodeficiency Virus-1 (HIV-1). Conditions: HIV-1, in words.
Data set [6] relates to HIV-2. Conditions: HIV-2, in words.
Data set [7] concerns Herpes Simplex Virus-1 (HSV-1). The settings on record: HSV-1, in words.
The test system of data set [8] is HSV-2. The settings on record: HSV-2, in words.
Data set [9] concerns Adenovirus type-1 (AdV-1, strain 65089). The settings on record: AdV-1, strain 65089, in words.
The test system of data set [10] is Punta Torro Virus (strain Adames). Conditions: in words.
For data set [11], the system named is Pichinde Virus (strain 4763). Conditions: Pichinde Virus strain 4763, in words.
In data set [12] the test system is Vaccinia Virus (strain WR). The settings on record: in words.
For data set [13], the system named is Venezuelan Equine Encephalitis Virus (VEE, Trinidad strain).
Data set [14] relates to West Nile Virus (WNV, strain New York). The settings on record: in words.
Data set [15] has as its system Yellow Fever Virus (17D strain).
Data set [16] can be described thus: Metabolism in the body.
The subject of data set [17] is B/1060/03. The format is cell-based, human influenza B virus.
Data set [18] in a line: pH in water. The class given is physicochemical.
Data set [19] relates to viral strains from avian, human and equine influenza. The format is cell-based, influenza virus. Conditions: read-out: IC90 concentrations.
Data set [20] in a line: Aqueous solubility. Conditions: 37° C. in distilled water.

Where “and” joins values, the source holds several entries; their conditions need not be identical. Equal entries are not always repeated.

One may read the IC50 as the concentration that inhibits the measured activity by half. Read a high IC50 as weaker potency.

Regarding `O=C(O)P(O)(O)=S` [TPFA, thiophosphonoformic acid], the inhibitory activity entry in [1], in data set [2], in [3], in data set [4], in data set [5] and in data set [6] was “has inhibitory activity” throughout. Also, the inhibitory activity entry in data set [7] was “has inhibitory activity”; in data set [8], “has inhibitory activity”; in [9], “does not have inhibitory activity”; in [10], “does not have inhibitory activity”; in [11], “does not have inhibitory activity”; in data set [12] it was “does not have inhibitory activity”. Besides, the inhibitory activity entry in [13], in data set [14] and in [15] was “does not have inhibitory activity” throughout. Also, the metabolism entry in data set [16] was “metabolized to phosphonoformic acid and thiophosphonic acid”.
On to `O=C(O)P(O)(O)=S` [Thiovir], for which the IC50 in [1] amounted to 38 µM; in [2] it was 29 µM; in data set [3] it was 55 µM; in data set [4], 32 µM; in [17], 92 µM. Moreover, the pH in water entry in data set [18] was “approximately 9”. Also, the IC90 in data set [19] was < 250 µM and ~200 µM. In addition, the aqueous solubility in data set [20] is reported as 40.8 g/100 mL.

For the origin of these results see patent publication US20080045482A1, “COMPOSITIONS AND METHODS FOR THE TREATMENT OF VIRAL INFECTIONS” (priority 2006, published 2008).
